What was measured:
[1] = system: ApoE KO mice fed a Western diet; assay: Lipid deposition in en face aorta, Oil Red O staining, 12 weeks; format: in vivo
Excerpt: Vascular pathology—For quantitative analysis of atherosclerotic lesion coverage, sacrificed mice were perfused with saline and the aorta was isolated from the heart to the iliac bifurcation by severing minor branching arteries and dissecting the adventitia. After 24 hrs of fixation with 10% buffered formalin, aorta was opened longitudinally and pinned down on the black wax. Lipids were stained with Oil Red O and photographs were taken. The percentage of aorta stained with Oil Red O was determined by image analysis software, Image Pro Plus.
FIG. 10. Lipid deposition in aortae of Western-diet fed ApoE KO mice. ApoE KO mice were fed with Western diet in the presence or absence of myriocin for 12 weeks. Mice were sacrificed and fixed with 10% buffered formalin for 24 hours. The aorta from heart to the iliac bifurcation was dissected, opened along the ventral surface and pinned down on a black wax background. Accumulated lipids were visualized by Oil Red O staining. Areas of the atherosclerotic lesion were quantified by using Image Pro Plus and represented as percentage of lesion area to total aorta area. The values reported are mean±SEM (n=4, WD vs. WD+myriocin or normal chow, *P<0.01; Normal vs. WD+myriocin, #P<0.01). Bar represents 1 cm.

[2] = system: ApoE KO mice fed a Western diet; assay: Plasma serum amyloid A by ELISA, cuffed femoral artery study; format: in vivo; details: 4 weeks
Protocol: Plasma lipids and serum amyloid A measurement—Mice were sacrificed by CO2 inhalation and blood was collected through cardiac puncture. Plasma concentrations of total cholesterol and triglyceride were determined enzymatically on a Cobas Mira Plus auto-analyzer using Cholesterol R1 and Triglycerides Reagent methods, respectively (Roche Diagnostics, Indiana, USA). Colormetric changes were measured at 500 nm. Lipoproteins were separated from mouse plasma by fast-protein liquid chromatography utilizing a Superose 6HR column. Cholesterol distribution among lipoproteins was determined by in-line post column analysis (K. A. Kieft, T. M. Bocan and B. R. Krause, J. Lipid Res. 1991; 32:859-66). Serum Amyloid A (SAA) protein in plasma was measured by ELISA according to the manufacturer's instructions (Biosource).
FIG. 5. Lesion Development in the Cuffed Femoral Artery of ApoE KO mice Fed a Western Diet. Mice were anesthetized and the right femoral artery was dissected from its surroundings. A nonconstrictive polyethylene cuff (Portex, 0.40-mm inner diameter, 0.80-mm outer diameter, and 1.5-mm length) was placed looselyaround the right femoral artery. […] Atherosclerotic lesion (black bar) and macrophage size (gray bar) in the femoral artery were quantified by using Image Pro Plus software (FIG. 5A). Plasma serum amyloid A levels were determined by colormetric ELISA (FIG. 5B). […]

CCCCCCC(=O)CCCCCC/C=C/C[C@@H](O)[C@H](O)[C@@](N)(CO)C(=O)O [myriocin]
atherosclerotic lesion decreased, en face aorta (Oil Red O) ([1]; compared with normal chow-fed ApoE KO mice): 75% | atherosclerotic lesion coverage reduced, en face aorta (Oil Red O) ([1]; vs Western diet-fed ApoE KO mice): 93% | plasma serum amyloid A lowered [2]: 84%

Reference: patent publication US20080027088A1, “Imidazole-Based Hmg-Coa Reductase Inhibitors” (Warner-Lambert Company, LLC, priority 2004, published 2008)
